Assay results from US12458021B2, “Microbiocidal derivatives” (SYNGENTA CROP PROTECTION AG, priority 2019, dated 2025).

What was measured:
Fusarium culmorum = experiment: microbe, parasite or virus in culture; type: cell-based; details: read-out: control of Fusarium culmorum (inhibition of growth, photometric)
[1] = test system: Mycosphaerella arachidis (Cercospora arachidicola); experiment: Mycosphaerella arachidis (Cercospora arachidicola) / liquid culture (early leaf spot); type: cell-based; details: PDB potato dextrose broth, 24° C., 4-5 days after application, read-out: control of Mycosphaerella arachidis (inhibition of growth, photometric)
Summary of the method: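 Conidia from cryogenic storage suspended in potato dextrose broth and added to compound in DMSO. Incubation at 24° C; growth inhibition read photometrically 4-5 days after application.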

[2] = test system: Phaeosphaeria nodorum (Septoria nodorum); experiment: Phaeosphaeria nodorum (Septoria nodorum) / wheat / leaf disc preventative (glume blotch); type: in vivo; details: Parastagonospora nodorum, foliar, wheat leaf segments cv. Kanzler, inoculated 2 days after application, assessed 5-7 days after application, read-out: control of Phaeosphaeria nodorum (percent disease control compared to untreated)
Summary of the method: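 Wheat cv. Kanzler leaf discs on agar were sprayed with formulated compound diluted in water and inoculated with spores 2 days later. Discs were kept at 20° C, 75% rh, 12 h light/dark; percent disease control versus untreated was scored 5-7 days after application.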

Alternaria solani = Alternaria solani / tomato / leaf disc (early blight); type: in vivo; details: foliar, tomato leaf disks cv. Baby, inoculated 2 days after application, assessed 5-7 days after application, read-out: control of Alternaria solani (percent disease control compared to untreated)
Description: Example B1: Alternaria solani/Tomato/Leaf Disc (Early Blight) Tomato leaf disks cv. Baby are placed on agar in multiwell plates (24-well format) and sprayed with the formulated test compound diluted in water. The leaf disks are inoculated with a spore suspension of the fungus 2 days after application. The inoculated leaf disks are incubated at 23° C./21° C. […] […]-185.

[3] = test system: Botryotinia fuckeliana (Botrytis cinerea); experiment: Botryotinia fuckeliana (Botrytis cinerea) / liquid culture (gray mould); type: cell-based; details: Vogels broth, 24° C., 3-4 days after application, read-out: control of Botryotinia fuckeliana (inhibition of growth, photometric)
Summary of the method: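 Botrytis cinerea conidia in Vogels broth were added to compound supplied as DMSO solution. Plates were incubated at 24 °C, and growth inhibition was read photometrically 3-4 days after application.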

[4] = test system: Blumeria graminis f. sp. tritici (Erysiphe graminis f. sp. tritici); experiment: Blumeria graminis f. sp. tritici / wheat / leaf disc preventative (powdery mildew on wheat); type: in vivo; details: foliar, wheat leaf segments cv. Kanzler, inoculated 1 day after application, assessed 6-8 days after application, read-out: control of Blumeria graminis f. sp. tritici (percent disease control compared to untreated)
From the text: Example B4: Blumeria graminis f. sp. tritici (Erysiphe graminis f. sp. tritici)/Wheat/Leaf Disc Preventative (Powdery Mildew on Wheat) Wheat leaf segments cv. Kanzler are placed on agar in a multiwell plate (24-well format) and sprayed with the formulated test compound diluted in water. The leaf disks are inoculated by shaking powdery mildew infected plants above the test plates 1 day after application. […] […]-192.

[5] = test system: Puccinia recondita f. sp. tritici; experiment: Puccinia recondita f. sp. tritici / wheat / leaf disc preventative (brown rust); type: in vivo; details: foliar, wheat leaf segments cv. Kanzler, inoculated 1 day after application, assessed 7-9 days after application, read-out: control of Puccinia recondita f. sp. tritici, preventative (percent disease control compared to untreated)
Summary of the method: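 Wheat leaf segments (cv. Kanzler) on agar were sprayed with formulated compound, then inoculated with spores 1 day later. Segments were incubated at 19 °C, 75% rh with 12 h light/dark. Percent disease control versus untreated was scored 7–9 days after application.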

[6] = test system: Mycosphaerella graminicola (Septoria tritici); experiment: Mycosphaerella graminicola (Septoria tritici) / liquid culture (Septoria blotch); type: cell-based; details: Zymoseptoria tritici, PDB potato dextrose broth, 24° C., 4-5 days after application, read-out: control of Mycosphaerella graminicola (inhibition of growth, photometric)
Summary of the method: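 Conidia from cryogenic storage were mixed into potato dextrose broth and added to test compound in DMSO. Plates were incubated at 24° C, and growth inhibition was read photometrically 4-5 days after application.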

[7] = test system: Magnaporthe grisea (Pyricularia oryzae); experiment: whole plant or invertebrate; type: in vivo; details: foliar, read-out: control of Magnaporthe grisea (percent disease control compared to untreated)
Pyrenophora teres = Pyrenophora teres / barley / leaf disc preventative (net blotch); type: in vivo; details: foliar, barley leaf segments cv. Hasso, inoculated 2 days after application, assessed 5-7 days after application, read-out: control of Pyrenophora teres (disease control compared to untreated)
Summary of the method: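 Barley cv. Hasso leaf discs on agar were sprayed with diluted formulated compound, then inoculated with spore suspension 2 days later. Incubation at 20 °C, 65% rh, 12 h light/dark; disease control versus untreated assessed 5-7 days after application.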

[8] = test system: Glomerella lagenarium (Colletotrichum lagenarium); experiment: Glomerella lagenarium (Colletotrichum lagenarium) / liquid culture (anthracnose); type: cell-based; details: Colletotrichum orbiculare, PDB potato dextrose broth, 24° C., 3-4 days after application, read-out: control of Glomerella lagenarium (inhibition of growth, photometric)
Summary of the method: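 Conidia from cryogenic storage suspended in potato dextrose broth and added to DMSO compound solution in plates. Incubated at 24° C; growth inhibition read photometrically 3-4 days after application.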

[9] = test system: Monographella nivalis (Microdochium nivale); experiment: Monographella nivalis (Microdochium nivale) / liquid culture (foot rot cereals); type: cell-based; details: PDB potato dextrose broth, 24° C., 4-5 days after application, read-out: control of Monographella nivalis (inhibition of growth, photometric)
Summary of the method: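 Cryostored M. nivalis conidia mixed into potato dextrose broth and added to 96-well plates holding test compound in DMSO. Incubated at 24° C; growth inhibition read photometrically 4-5 days after application.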

Sclerotinia sclerotiorum = Sclerotinia sclerotiorum / liquid culture (cottony rot); type: cell-based; details: PDB potato dextrose broth, mycelia fragments, 24° C., 3-4 days after application, read-out: control of Sclerotinia sclerotiorum (inhibition of growth, photometric)
Summary of the method: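 Mycelial fragments of a fresh liquid culture in potato dextrose broth were added to compound dispensed from DMSO solution. Plates were incubated at 24° C. Growth inhibition was measured photometrically 3–4 days after application.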

[10] = test system: Puccinia recondita f. sp. tritici; experiment: Puccinia recondita f. sp. tritici / wheat / leaf disc curative (brown rust); type: in vivo; details: foliar, wheat leaf segments cv. Kanzler, compound applied 1 day after inoculation, assessed 6-8 days after application, read-out: control of Puccinia recondita f. sp. tritici, curative (percent disease control compared to untreated)
Description: Example B10: Puccinia recondita f. sp. tritici/Wheat/Leaf Disc Curative (Brown Rust) Wheat leaf segments cv. Kanzler are placed on agar in multiwell plates (24-well format). The leaf segments are inoculated with a spore suspension of the fungus. Plates are stored in darkness at 19° C. and 75% rh. The formulated test compound diluted in water is applied 1 day after inoculation. […] […]-185.

COc1ccc(Nc2cc(F)cc(F)c2)nc1C(=O)NC1CCC1(C)C (stereo not shown) [Compound P-7, 6-(3,5-difluoroanilino)-N-(2,2-dimethylcyclobutyl)-3-methoxy-pyridine-2-carboxamide]
≥ 80%: inhibition at 20 ppm (Fusarium culmorum) | inhibition at 20 ppm [1] | pest or weed control at 200 ppm [2] | pest or weed control at 200 ppm (Alternaria solani) | inhibition at 20 ppm [3] | pest or weed control at 200 ppm [4] | pest or weed control at 200 ppm [5] | inhibition at 20 ppm [6] | pest or weed control at 200 ppm [7] | pest or weed control at 200 ppm (Pyrenophora teres) | inhibition at 20 ppm [8] | inhibition at 20 ppm [9]

COc1ccc(Nc2cc(F)cc(F)c2)nc1C(=O)NC1(C)CCCC1 [Compound P-107, 6-(3,5-difluoroanilino)-3-methoxy-N-(1-methylcyclopentyl)pyridine-2-carboxamide]
≥ 80%: inhibition at 20 ppm (Fusarium culmorum) | inhibition at 20 ppm (Sclerotinia sclerotiorum) | inhibition at 20 ppm [1] | pest or weed control at 200 ppm [10] | pest or weed control at 200 ppm [2] | pest or weed control at 200 ppm (Alternaria solani) | pest or weed control at 200 ppm [4] | pest or weed control at 200 ppm [5] | inhibition at 20 ppm [6] | pest or weed control at 200 ppm [7] | pest or weed control at 200 ppm (Pyrenophora teres) | inhibition at 20 ppm [8] | inhibition at 20 ppm [9]

COc1ccc(Nc2cc(F)cc(F)c2)nc1C(=O)NC1(C)CCCCC1 [Compound P-108, 6-(3,5-difluoroanilino)-3-methoxy-N-(1-methylcyclohexyl)pyridine-2-carboxamide]
≥ 80%: inhibition at 20 ppm (Fusarium culmorum) | inhibition at 20 ppm (Sclerotinia sclerotiorum) | inhibition at 20 ppm [1] | pest or weed control at 200 ppm [4] | pest or weed control at 200 ppm [5] | inhibition at 20 ppm [6] | pest or weed control at 200 ppm [7] | pest or weed control at 200 ppm (Pyrenophora teres) | inhibition at 20 ppm [8] | inhibition at 20 ppm [9]

CCC1(NC(=O)c2nc(Nc3cc(F)cc(F)c3)ccc2OC)CCC1 [Compound P-178, 6-(3,5-difluoroanilino)-N-(1-ethylcyclobutyl)-3-methoxy-pyridine-2-carboxamide]
≥ 80%: inhibition at 20 ppm (Fusarium culmorum) | inhibition at 20 ppm [1] | pest or weed control at 200 ppm [10] | pest or weed control at 200 ppm [2] | pest or weed control at 200 ppm (Alternaria solani) | inhibition at 20 ppm [3] | pest or weed control at 200 ppm [4] | pest or weed control at 200 ppm [5] | inhibition at 20 ppm [6] | pest or weed control at 200 ppm (Pyrenophora teres) | inhibition at 20 ppm [8] | inhibition at 20 ppm [9]

COc1ccc(Nc2cc(F)cc(F)c2)nc1C(=O)NC1(C(C)C)CCC1 [Compound P-179, 6-(3,5-difluoroanilino)-N-(1-isopropylcyclobutyl)-3-methoxy-pyridine-2-carboxamide]
≥ 80%: inhibition at 20 ppm (Fusarium culmorum) | inhibition at 20 ppm [1] | pest or weed control at 200 ppm [2] | pest or weed control at 200 ppm (Alternaria solani) | inhibition at 20 ppm [3] | pest or weed control at 200 ppm [4] | pest or weed control at 200 ppm [5] | inhibition at 20 ppm [6] | pest or weed control at 200 ppm (Pyrenophora teres) | inhibition at 20 ppm [8] | inhibition at 20 ppm [9]
